From PubChem BioAssay (NCI)
Values joined by “and” are separate entries in the source; they are usually repeats but may differ in a detail not shown here. Equal values may be shown once.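 Grown in 96-well plates, cells were treated for 48 hours with each compound at five concentrations. Insufficient inhibition: endpoint recorded as highest concentration tested. GI50 is the concentration that inhibits growth by half. TGI: concentration producing complete growth inhibition.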

Experiments:
Assay in all cases: NCI tumour cell line growth inhibition, 48 h
A498 renal = tested on: A498 renal
MDA-MB-231 breast = tested on: MDA-MB-231 breast
CCRF-CEM leukemia = tested on: CCRF-CEM leukemia
HL-60(TB) leukemia = tested on: HL-60(TB) leukemia
NCI-H460 lung = tested on: NCI-H460 lung
LOX IMVI melanoma = tested on: LOX IMVI melanoma
U251 CNS = tested on: U251 CNS
SR leukemia = tested on: SR leukemia
NCI-H226 lung = tested on: NCI-H226 lung
EKVX NSCLC = tested on: EKVX NSCLC

SMILES	GI50 (A498 renal)	TGI (A498 renal) [µM]	GI50 (MDA-MB-231 breast)	TGI (MDA-MB-231 breast) [µM]	GI50 (CCRF-CEM leukemia)	TGI (CCRF-CEM leukemia) [µM]	GI50 (HL-60(TB) leukemia)	TGI (HL-60(TB) leukemia)	GI50 (NCI-H460 lung)	TGI (NCI-H460 lung) [µM]	GI50 (LOX IMVI melanoma)	TGI (LOX IMVI melanoma) [µM]	GI50 (U251 CNS)	TGI (U251 CNS) [µM]	GI50 (SR leukemia)	TGI (SR leukemia) [µM]	GI50 (NCI-H226 lung) [µM]	TGI (NCI-H226 lung) [µM]	GI50 (EKVX NSCLC) [µM]	TGI (EKVX NSCLC) [µM]
Cc1ccc(C(=O)c2sc3nc4c(cc3c2N)CCCC4)c(C)c1	0.236 µM	11	1.08 µM	> 100	0.311 µM	> 100	0.263 µM	> 38.8 µM	0.348 µM	> 100	0.502 µM	> 100	0.376 µM	> 100	0.124 µM	> 73	2.67	> 100	–	–
COc1cccc(/C=C/c2nc3c(cnn3-c3ccccc3)c(=O)[nH]2)c1	> 100 µM	> 100	50 µM	> 100	> 100 µM	> 100	> 62.8 µM	> 100 µM	> 81.8 µM	> 100	> 100 µM	> 100	> 72.1 µM	> 100	–	> 100	> 100	> 100	65.8	> 100
O=C(CSCC(=O)N/N=C/c1ccccc1O)N/N=C\c1ccccc1O	14.3 µM	> 100	4.16 µM	> 100	0.433 µM	> 100	1.49 µM	5.11 µM	2.27 µM	> 100	0.748 µM	> 100	1.06 µM	> 100	0.668 µM	> 100	3.43	> 100	2.44	> 100
CCOC(=O)Nc1nc2ccccc2[nH]1	2.42 µM and 3.81 µM	> 28.8	12.9 µM and 19.3 µM	> 100	3.6 µM and 4.41 µM	> 100	2.64 µM and 2.02 µM	6.64 µM and > 20.1 µM	4.27 µM and 3.6 µM	> 100	7.1 µM and 6.82 µM	> 100	5.2 µM and 4.48 µM	> 100	2.64 µM and 1.1 µM	> 100	–	> 100	> 24	> 100
O=C(Nc1cccc(-n2cc(-c3ccncc3)c(-c3ccc(O)c(Cl)c3)n2)c1)c1ccc2c(c1)OCCO2	> 100 µM	> 100	2.92 µM	> 100	3.75 µM	> 100	4.54 µM	> 100 µM	6.2 µM	> 100	4.77 µM	> 100	4.02 µM	> 100	2.46 µM	> 100	12.2	> 100	–	–
O=C1/C=C/[C@@H](O)[C@@H]2C[C@@H](O)C[C@H]2/C=C/CCC[C@H](CCc2ccc3ncccc3c2)O1	0.1 µM	–	0.167 µM	0.373	0.306 µM	8.4	0.268 µM	0.691 µM	0.36 µM	> 46.8	0.152 µM	0.333	0.347 µM	> 100	0.296 µM	6.5	–	–	0.289	> 64.9
CN(C)C(=O)OCc1nc2c(N3CCOCC3)nc(-c3ccccc3)nc2n1C	1.34 µM	2.68	1.25 µM	2.62	0.273 µM	1.55	0.375 µM	1.96 µM	1.66 µM	3.52	0.183 µM	0.402	1.47 µM	2.98	0.252 µM	2.98	1.69	3.65	1.44	2.95
Cc1cc(-c2nnc(/C=C/c3ccc4c(c3)OCO4)o2)n[nH]1	7.54 µM	40.7	16.9 µM	> 50	2.05 µM	19.1	1.34 µM	3.99 µM	15.1 µM	> 50	15.9 µM	> 50	13.6 µM	> 50	2.39 µM	48.3	> 50	> 50	17.9	> 50
CCCCCCCCCCCCCCCCCCNCc1ccc(Cl)cc1	14 µM	31.9	1.84 µM	4.3	2.69 µM	8.66	1.55 µM	3.94 µM	2.05 µM	4	2.04 µM	4.92	1.96 µM	3.85	2.08 µM	6.58	3.7	19.2	3.84	18.7
Cc1cc(C(=O)Nc2n[nH]c3ccccc23)n[nH]1	> 100 µM	> 100	> 100 µM	> 100	> 100 µM	> 100	75.2 µM	> 100 µM	> 100 µM	> 100	> 100 µM	> 100	> 100 µM	> 100	80.6 µM	> 100	> 100	> 100	> 100	> 100
C[C@]12CC[C@@H]3c4ccc(O)cc4CC[C@H]3[C@@H]1CC[C@@H]2NS(=O)(=O)c1ccc(Br)cc1	1.61 µM	3.7	2.01 µM	4.62	3.14 µM	> 100	2.77 µM	8.5 µM	2.15 µM	4.81	–	–	2.89 µM	10.6	3.37 µM	39.3	2.04	4.17	–	–
O=C(O)c1cc2ccccc2c2c3c(ccc12)OCO3	125 µM	324	165 µM	> 1000	–	–	172 µM	440 µM	265 µM	> 1000	223 µM	766	134 µM	478	136 µM	507	123	818	–	–
N#Cc1ccc(-c2c(-c3ncn[nH]3)sc(N3CCOCC3)c2C#N)c(F)c1	0.0225 µM	0.206	3.28 µM	25.7	3.88 µM	> 100	0.781 µM	> 100 µM	0.419 µM	23.6	0.546 µM	13.1	1.03 µM	21.7	1.88 µM	19.8	1.83	86.3	–	–
